According to patent US20050250166A1, “Cdc7-ask kinase complex, substrates of the kinase complex, antibody specific to the substrate, and method of screening compound capable of inhibiting cdc7-ask kinase using the same” (Medical and Biological Laboratories Co. Ltd., priority 2002, published 2005):

Columns and labels:
[1] = biological target: T1, Cdc7-ASK complex (Homo sapiens, UniProt O00311); assay: ELISA system for measuring inhibition of Cdc7-ASK complex phosphorylation activity (GST-Mcm2 (1-130 a.a.) substrate, anti-Mcm2-phospho-S17 antibody); type: biochemical; settings: for concentration-dependent inhibitory effect for Cdc7-ASK complex: ELISA, inhibitor dilution series, FIG. 8
T1 construct: made in house; host or cells: E. coli C600 lon-
T1 sequence (O00311 14-574 limits assumed, one chain of several): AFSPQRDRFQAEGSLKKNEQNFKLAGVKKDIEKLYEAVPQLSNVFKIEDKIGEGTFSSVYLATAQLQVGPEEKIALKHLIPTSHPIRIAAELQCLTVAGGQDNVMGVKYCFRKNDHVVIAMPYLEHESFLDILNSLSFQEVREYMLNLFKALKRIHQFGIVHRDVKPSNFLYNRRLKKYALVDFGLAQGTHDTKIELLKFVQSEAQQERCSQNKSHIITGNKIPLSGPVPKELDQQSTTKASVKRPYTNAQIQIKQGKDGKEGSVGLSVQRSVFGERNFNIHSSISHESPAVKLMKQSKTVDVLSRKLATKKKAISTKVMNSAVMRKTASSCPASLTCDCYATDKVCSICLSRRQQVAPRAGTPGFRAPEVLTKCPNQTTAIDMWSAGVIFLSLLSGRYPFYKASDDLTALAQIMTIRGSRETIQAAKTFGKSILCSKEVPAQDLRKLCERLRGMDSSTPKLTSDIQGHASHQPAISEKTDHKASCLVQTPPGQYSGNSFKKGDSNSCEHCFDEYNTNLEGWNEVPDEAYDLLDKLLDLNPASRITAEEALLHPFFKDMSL
Protocol: GST-Mcm2 (1-130 a.a.) and GST-Mcm2 (1-80 a.a.) were diluted to 5 μg/ml using 0.1 M carbonate buffer, pipetted at 50 μl/well in to each well of a microtiter plate for ELISA, and then sensitized overnight at 4° C. The sensitizing solution was removed, a blocking solution (1% BSA, 5% sucrose and 0.1% NaN3/PBS) was pipetted in to each well at 200 μl/well, and the plate was allowed to stand for about one hour at room temperature. The blocking solution was then completely removed. The plates were then air-dried in a draft chamber, and stored at 4° C. until use. GST-Mcm2 (1-130 a.a.) and GST-Mcm2 (1-80 a.a.) were immobilized on the inner walls of the microtiter plates by this procedure.
A recombinant Cdc7-ASK complex dilution series was prepared by diluting from one-fold (×1) to 64-fold in two-fold increments using a phosphorylation buffer. 50 μl aliquots of this solution were added to the wells of the immobilized plates (a protein phosphorylation reaction). After incubating at 30° C. for a fixed period of time, the phosphorylation reaction solution was discarded and each well was amply washed four or more times with PBS. […] The primary antibody reaction solution was then discarded and each well was amply washed four or more times with PBS. Anti-rabbit immunoglobulin antibody (secondary antibody, MBL) labeled with horseradish peroxidase (HRP) was then diluted 1000-fold with PBS and added to each well in 50 μl aliquots, then allowed to react for 30 to 60 minutes at room temperature (secondary antibody reaction). The secondary antibody reaction solution was then discarded and each well was washed four or more times with PBS. A coloring substrate solution was then added to each well in 50 μl aliquots, and color was developed for five to 20 minutes (coloring reaction). The coloring reaction was stopped by adding 50 μl aliquots of reaction stopping solution to each well, and the optical absorbance at 450 nm was measured using a microplate reader. […]

[2] = biological target: T2, HA-huCdc7 (wild type) (human, UniProt O00311 14-574); assay: co-purification on glutathione Sepharose 4B from E. coli co-expression, SDS-PAGE with silver staining
T2 construct: also called HA-Cdc7
T2 sequence (O00311 other isoform, or with tags, fused parts or gaps): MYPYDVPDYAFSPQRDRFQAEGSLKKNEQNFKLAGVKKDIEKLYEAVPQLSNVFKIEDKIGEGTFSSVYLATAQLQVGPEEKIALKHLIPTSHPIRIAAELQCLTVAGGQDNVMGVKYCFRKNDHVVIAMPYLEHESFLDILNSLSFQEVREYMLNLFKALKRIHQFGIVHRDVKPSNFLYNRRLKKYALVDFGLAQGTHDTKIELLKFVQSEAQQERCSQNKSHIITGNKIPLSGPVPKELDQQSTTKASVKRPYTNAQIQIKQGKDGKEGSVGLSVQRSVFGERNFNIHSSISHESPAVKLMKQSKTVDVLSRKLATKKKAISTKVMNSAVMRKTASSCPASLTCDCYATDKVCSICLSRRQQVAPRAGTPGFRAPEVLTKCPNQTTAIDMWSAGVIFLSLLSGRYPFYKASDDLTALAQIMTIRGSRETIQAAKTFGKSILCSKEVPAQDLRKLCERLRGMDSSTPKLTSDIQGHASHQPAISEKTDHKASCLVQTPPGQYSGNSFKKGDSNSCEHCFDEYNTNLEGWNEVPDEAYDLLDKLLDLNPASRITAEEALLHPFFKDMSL

Row | Molecule | concentration-dependent inhibitory effect for Cdc7-ASK complex [1] | IC50 [1] | binding result [2]
1 | CC[C@H](CO)Nc1nc(NCc2ccccc2)c2ncn(C(C)C)c2n1 [Roscovitine] | not observed |  | 
2 | COC(=O)[C@@]1(O)C[C@H]2O[C@]1(C)n1c3ccccc3c3c4c(c5c6ccccc6n2c5c31)C(=O)NC4 [K-252a] | concentration-dependent | 2 µM | 
3 | GST-TAT-ASK(minimum) (other, also called GST-ASK; partial ASK) YGRKKRRQRRRDIRYYIEQKKKELYLLKKSSTSVRDGGKRVGSGAQKTRTGRLKKPFVKVEDMSQLYRPFYLQLTNMPFINYSIQKPCSPFDVDKPSSMQKQTQVKLRIQTDGDKYGGTSIQLQLKEKKKKGYCECCLQKYEDLETHLLSEQHRNFAQSNQYQVVDDIVSKLVFDFVEYEKDTPKKK |  |  | binds
